# In patent US11739101B2, “Bifunctional degraders of hematopoietic progenitor kinase and therapeutic uses thereof” (Nurix Therapeutics, Inc., priority 2020, dated 2023):
# Target: T1, HPK1 (Homo sapiens, UniProt Q92918)
# T1 construct: A HiBiT tag was introduced by CRISPR on the N terminus of HPK1 in Jurkat cells; host or cells: Jurkat (ATCC TIB-152), monoclonal CRISPR HiBiT knock-in line
# Assay: HPK1 Cellular HiBiT Degradation Assay
# Type: cell-based
# Details: HiBiT-tagged HPK1 Jurkat cells, 24 hours, 10 uM to 0.1 nM; Dmax = 100 minus lowest % HPK1 remaining vs DMSO vehicle
# Procedure: HiBiT HPK1 Jurkat cell lines were used to evaluate the total protein levels of HPK1 in a robust human cellular high throughput format. The level of HPK1 remaining following treatment with HPK1 CTMs is reported as Dmax (maximum degradation) achieved at 24 hours when compared to vehicle treated controls. […] These decreases were not a result of cytotoxicity measured by a parallel viability assessment (CTG). See also Table 1.
# A HiBiT tag was introduced by CRISPR on the N terminus of HPK1 in Jurkat cells (ATCC® TIB-152) to allow quantitation of HPK1 protein levels in a monoclonal human cell line. Cells were plated at 1×10^6 cells/mL, 30 uL/well (3×10^4 cells/well) in complete RPMI 1640 (10% heat inactivated FBS, 1% L-glutamine) in 384-well assay plates (Corning, cat. no. 3570). HPK1 chimeric targeting molecules (CTMs) were added in an 11-point dilution series (3.16-fold) with a final assay concentration range of 10 uM to 0.1 nM. The parental Jurkat cell line, with no HiBiT insertion, was included in the assay as a background control. Cells treated with a DMSO vehicle control were used to determine the maximum signal defining 100% HPK1 in the cell. Cells were incubated for 24 hours at 37° C./5% CO2. Following incubation, 30 uL of complete Nano-Glo HiBiT Lytic Detection Reagent (Promega cat. no. N3040) was added. Cells were incubated for 10 minutes at room temperature and luminescence was read on an EnVision plate reader (Perkin Elmer, 0.1 sec per well). Parallel plates were assessed for viability using Cell Titer Glo (Promega) and read on an EnVision plate reader to ensure results were not the effect of cytotoxicity. Percent HPK1 remaining per sample was calculated as follows: […]
# % HPK1 remaining values were plotted as a function of compound concentration and curves were fit using the Prism (GraphPad) equation “log(inhibitor) vs response−Variable slope (four parameters)”. Dmax values were calculated by identifying the lowest % remaining and subtracting from 100. Dmax values are provided in Table 1, wherein A>65%, 45%≤B≤65% and C<45%.
# T1 sequence (Q92918 whole entry): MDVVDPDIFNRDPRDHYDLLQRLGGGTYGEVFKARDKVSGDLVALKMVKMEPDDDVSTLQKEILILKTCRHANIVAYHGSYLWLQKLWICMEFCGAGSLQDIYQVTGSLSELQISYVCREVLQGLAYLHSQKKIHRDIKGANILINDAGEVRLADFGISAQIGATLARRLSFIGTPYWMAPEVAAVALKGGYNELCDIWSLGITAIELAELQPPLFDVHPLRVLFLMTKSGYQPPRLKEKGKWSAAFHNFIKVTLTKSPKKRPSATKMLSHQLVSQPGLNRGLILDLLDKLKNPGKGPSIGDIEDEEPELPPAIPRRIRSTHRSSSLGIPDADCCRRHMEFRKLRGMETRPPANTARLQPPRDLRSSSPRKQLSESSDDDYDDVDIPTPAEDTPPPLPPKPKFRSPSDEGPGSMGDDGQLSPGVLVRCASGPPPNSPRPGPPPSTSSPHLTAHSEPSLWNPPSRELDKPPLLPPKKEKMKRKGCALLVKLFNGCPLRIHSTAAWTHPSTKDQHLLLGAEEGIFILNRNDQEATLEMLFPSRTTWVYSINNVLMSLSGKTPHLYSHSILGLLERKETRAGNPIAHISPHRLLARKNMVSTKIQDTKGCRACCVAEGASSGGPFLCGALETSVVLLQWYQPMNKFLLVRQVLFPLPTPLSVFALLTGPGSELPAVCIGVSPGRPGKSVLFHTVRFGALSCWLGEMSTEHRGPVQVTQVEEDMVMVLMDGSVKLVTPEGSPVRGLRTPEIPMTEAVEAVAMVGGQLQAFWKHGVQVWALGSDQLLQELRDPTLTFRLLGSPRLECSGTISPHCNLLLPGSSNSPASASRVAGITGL
row,Structure (SMILES),Dmax
1,"Cc1cc(F)c(Nc2nc(-c3ccc4c(c3)N([C@H]3C[C@@H](N5CCCCC5)C3)C(=O)C43CCN(C(=O)CN4CCN(c5ccc6c(c5)C(=O)N(C5CCC(=O)NC5=O)C6=O)CC4)CC3)cc3ncn(C(C)C)c23)cc1C(=O)NC(C)C (mixture of isomers) [Example 23, 5-[(6-{1′-[2-(4-{2-[(3RS)-2,6-dioxopiperidin-3-yl]-1,3-dioxo-2,3-dihydro-1H-isoindol-5-yl}piperazin-1-yl)acetyl]-2-oxo-1-[(1s,3s)-3-(piperidin-1-yl)cyclobutyl]-1,2-dihydrospiro[indole-3,4′-piperidin]-6-yl}-3-(propan-2-yl)-3H-imidazo[4,5-c]pyridin-4-yl)amino]-4-fluoro-2-methyl-N-(propan-2-yl)benzamide]",< 45%
2,"Cc1cc(F)c(Nc2nc(-c3ccc4c(c3)N([C@H]3C[C@@H](N5CCCCC5)C3)C(=O)C43CCN(C(=O)c4ccc(C(=O)N5CCN(c6cccc7c6C(=O)N(C6CCC(=O)NC6=O)C7=O)CC5)cc4)CC3)cc3ncn(C(C)C)c23)cc1C(=O)NC(C)C (some centres unmarked) [Example 95, 5-({6-[1′-(4-{4-[2-(2,6-dioxopiperidin-3-yl)-1,3-dioxoisoindol-4-yl]piperazine-1-carbonyl}benzoyl)-2-oxo-1-[(1s,3s)-3-(piperidin-1-yl)cyclobutyl]spiro[indole-3,4′-piperidin]-6-yl]-3-isopropylimidazo[4,5-c]pyridin-4-yl}amino)-4-fluoro-N-isopropyl-2-methylbenzamide]",45 to 65%
3,"Cc1cc(F)c(Nc2nc(-c3ccc4c(c3)N([C@H]3C[C@@H](N5CCCCC5)C3)C(=O)C43CCN(C(=O)C4CN(CC5CCN(c6cccc7c6C(=O)N(C6CCC(=O)NC6=O)C7=O)C5)C4)CC3)cc3ncn(C(C)C)c23)cc1C(=O)NC(C)C (some centres unmarked) [Example 35, 5-({6-[1′-(1-{[1-{2-[2,6-dioxopiperidin-3-yl]-1,3-dioxo-2,3-dihydro-1H-isoindol-4-yl}pyrrolidin-3-yl]methyl}azetidine-3-carbonyl)-2-oxo-1-[(1s,3s)-3-(piperidin-1-yl)cyclobutyl]-1,2-dihydrospiro[indole-3,4′-piperidin]-6-yl]-3-(propan-2-yl)-3H-imidazo[4,5-c]pyridin-4-yl}amino)-4-fluoro-2-methyl-N-(propan-2-yl)benzamide]",45 to 65%

# The next lines start with the values.
row,Dmax,Structure (SMILES)
1,< 45%,"Cc1cc(F)c(Nc2nc(-c3ccc4c(c3)N([C@H]3C[C@@H](N5CCCCC5)C3)C(=O)C43CCN(C(=O)c4ccc(N5CCN(c6cccc7c6C(=O)N(C6CCC(=O)NC6=O)C7=O)CC5)nc4)CC3)cc3ncn(C(C)C)c23)cc1C(=O)NC(C)C (some centres unmarked) [Example 83, 5-((6-(1′-(6-(4-(2-(2,6-dioxopiperidin-3-yl)-1,3-dioxoisoindolin-4-yl)piperazin-1-yl)nicotinoyl)-2-oxo-1-((1s,3)-3-(piperidin-1-yl)cyclobutyl)spiro[indoline-3,4′-piperidin]-6-yl)-3-isopropyl-3H-imidazo[4,5-c]pyridin-4-yl)amino)-4-fluoro-N-isopropyl-2-methylbenzamide]"
2,< 45%,"Cc1cc(F)c(Nc2nc(-c3ccc4c(c3)N([C@H]3C[C@@H](N5CCCCC5)C3)C(=O)C43CCN(C(=O)CCOCCNc4cccc5c4C(=O)N(C4CCC(=O)NC4=O)C5=O)CC3)cc3ncn(C(C)C)c23)cc1C(=O)NC(C)C (some centres unmarked) [Example 11, 5-((6-(1′-(3-(2-((2-(2,6-dioxopiperidin-3-yl)-1,3-dioxoisoindolin-4-yl)amino)ethoxy)propanoyl)-2-oxo-1-((1s,3s)-3-(piperidin-1-yl)cyclobutyl)spiro[indoline-3,4′-piperidin]-6-yl)-3-isopropyl-3H-imidazo[4,5-c]pyridin-4-yl)amino)-4-fluoro-N-isopropyl-2-methylbenzamide]"
